20 compounds from ChEMBL document CHEMBL2311416, “The discovery of potent and selective 4-aminothienopyridines as B-Raf kinase inhibitors” (Bioorg Med Chem Lett, 2013) can be followed below.

Assay [1] concerns the target Serine/threonine-protein kinase B-raf (Homo sapiens, UniProt P15056). Description: Inhibition of B-Raf (unknown origin) by fluorescence polarization assay. In general terms: In fluorescence polarisation assays a small probe gives low polarisation when free and higher when bound to something large.
The species named for assay [2] is Homo sapiens. Description: Selectivity ratio of IC50 for AKT1 (unknown origin) to IC50 for B-Raf (unknown origin).
The species entered for assay [3] is Homo sapiens. Description: Selectivity ratio of IC50 for ALK5 (unknown origin) to IC50 for B-Raf (unknown origin).
Assay [4] is filed under the species Homo sapiens. Description: Selectivity ratio of IC50 for aurora-A (unknown origin) to IC50 for B-Raf (unknown origin).
The species entered for assay [5] is Homo sapiens. The assay is described as follows: Selectivity ratio of IC50 for aurora-B (unknown origin) to IC50 for B-Raf (unknown origin).
For assay [6], the species on record is Homo sapiens. Description: Selectivity ratio of IC50 for BTK (unknown origin) to IC50 for B-Raf (unknown origin).
The species named for assay [7] is Homo sapiens. The assay is described as follows: Selectivity ratio of IC50 for EGFR (unknown origin) to IC50 for B-Raf (unknown origin).
The species named for assay [8] is Homo sapiens. The assay is described as follows: Selectivity ratio of IC50 for ERBB2 (unknown origin) to IC50 for B-Raf (unknown origin).
The species named for assay [9] is Homo sapiens. Description: Selectivity ratio of IC50 for GSK3beta (unknown origin) to IC50 for B-Raf (unknown origin).
Assay [10] is filed under the species Homo sapiens. Description: Selectivity ratio of IC50 for IGF1R (unknown origin) to IC50 for B-Raf (unknown origin).
The species named for assay [11] is Homo sapiens. The assay is described as follows: Selectivity ratio of IC50 for IKK2 (unknown origin) to IC50 for B-Raf (unknown origin).
The species named for assay [12] is Homo sapiens. The assay is described as follows: Selectivity ratio of IC50 for JNK3 (unknown origin) to IC50 for B-Raf (unknown origin).
For assay [13], the species on record is Homo sapiens. The assay is described as follows: Selectivity ratio of IC50 for PKA (unknown origin) to IC50 for B-Raf (unknown origin).
Assay [14] is filed under the species Homo sapiens. The assay is described as follows: Selectivity ratio of IC50 for ROCK1 (unknown origin) to IC50 for B-Raf (unknown origin).
For assay [15], the species on record is Homo sapiens. The assay is described as follows: Selectivity ratio of IC50 for SGK1 (unknown origin) to IC50 for B-Raf (unknown origin).
Assay [16] is filed under the species Homo sapiens. The assay is described as follows: Selectivity ratio of IC50 for SYK (unknown origin) to IC50 for B-Raf (unknown origin).
The species entered for assay [17] is Homo sapiens. The assay is described as follows: Selectivity ratio of IC50 for ZAP70 (unknown origin) to IC50 for B-Raf (unknown origin).

Serine/threonine-protein kinase B-raf, sequence (P15056 whole entry): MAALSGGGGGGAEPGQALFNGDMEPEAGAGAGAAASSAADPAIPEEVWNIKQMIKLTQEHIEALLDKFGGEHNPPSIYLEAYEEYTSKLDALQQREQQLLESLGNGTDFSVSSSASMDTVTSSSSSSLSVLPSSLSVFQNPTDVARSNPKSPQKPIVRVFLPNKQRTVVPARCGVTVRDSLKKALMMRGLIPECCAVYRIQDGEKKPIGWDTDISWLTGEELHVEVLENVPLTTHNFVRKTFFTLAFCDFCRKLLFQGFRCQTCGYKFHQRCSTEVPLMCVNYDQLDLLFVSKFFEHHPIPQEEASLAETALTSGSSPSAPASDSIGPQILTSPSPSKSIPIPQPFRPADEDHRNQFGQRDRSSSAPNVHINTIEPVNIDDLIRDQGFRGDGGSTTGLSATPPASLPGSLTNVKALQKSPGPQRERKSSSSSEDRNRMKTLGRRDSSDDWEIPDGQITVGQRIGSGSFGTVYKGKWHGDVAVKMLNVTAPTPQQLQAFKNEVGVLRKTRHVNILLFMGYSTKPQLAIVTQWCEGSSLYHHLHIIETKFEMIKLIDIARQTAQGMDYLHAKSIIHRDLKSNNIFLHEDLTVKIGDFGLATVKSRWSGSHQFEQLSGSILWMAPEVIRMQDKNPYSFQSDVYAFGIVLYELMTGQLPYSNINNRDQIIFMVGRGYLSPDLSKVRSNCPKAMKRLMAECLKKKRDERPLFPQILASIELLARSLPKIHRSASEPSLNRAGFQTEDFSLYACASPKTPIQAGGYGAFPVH

`Nc1ncc(-c2cccnc2)c2scc(-c3cccc(NC(=O)Cc4cccs4)c3)c12`: it took 45 nM to reach half-maximal inhibition in assay [1] (IC50).
Regarding `Nc1ncc(-c2cccnc2)c2scc(-c3cccc(NC(=O)C4CCCCC4)c3)c12`, the IC50 – broadly, the concentration at which inhibition is half-maximal – in assay [1] turned out to be 1550 nM.
The compound `Nc1ncc(-c2cccnc2)c2scc(-c3cccc(NC(=O)Nc4ccc(C(F)(F)F)cc4)c3)c12` returned a half-maximal inhibitory concentration (IC50) in assay [1] of 25.1 nM.
Same read-out and setting: as for `Nc1cccc(-c2csc3c(-c4cccnc4)cnc(N)c23)c1`, the figure is over 10000 nM; as for `Nc1ncc(-c2cccnc2)c2scc(-c3cccc(NC(=O)Cc4ccccc4)c3)c12`, 19 nM; as for `Cc1noc(C)c1NC(=O)Nc1cccc(-c2csc3c(-c4cccnc4)cnc(N)c23)c1`, 692 nM.
The same measure, in the same setting: the value for `Nc1ncc(-c2cccnc2)c2scc(-c3cccc(NC(=O)NCc4ccccc4)c3)c12` was 20.9 nM; that for `CC(C)(C)NC(=O)Nc1cccc(-c2csc3c(-c4cccnc4)cnc(N)c23)c1` was 7940 nM.
In turn, `Nc1ncc(-c2cccnc2)c2scc(-c3cccc(NC(=O)c4cccc(C(F)(F)F)c4)c3)c12` yielded a 50% inhibitory concentration (IC50) in [1] of 5.1 nM. Moreover, the Ratio IC50 in the assay listed under Homo sapiens [2], in the assay listed under Homo sapiens [3], in the assay listed under Homo sapiens [4], in the assay filed under Homo sapiens [5], in the assay listed under Homo sapiens [6] and in the assay listed under Homo sapiens [7] was over 40 in each case. Moreover, the Ratio IC50 in the assay listed under Homo sapiens [8], in the assay filed under Homo sapiens [9], in the assay listed under Homo sapiens [10], in the assay filed under Homo sapiens [11], in the assay listed under Homo sapiens [12] and in the assay listed under Homo sapiens [13] was over 40 throughout. Further, the Ratio IC50 in the assay listed under Homo sapiens [14], in the assay listed under Homo sapiens [15], in the assay listed under Homo sapiens [16] and in the assay filed under Homo sapiens [17] was over 40 each time.
As for `Nc1ncc(-c2cccnc2)c2scc(-c3cccc(NC(=O)Nc4cc(C(F)(F)F)ccc4F)c3)c12`, in assay [1], half-maximal inhibition (IC50) required 21.4 nM.
Same read-out and setting: the value for `Nc1ncc(-c2cccnc2)c2scc(-c3cccc(NC(=O)Nc4ccc(OCc5ccccc5)cc4)c3)c12` was 933 nM.
Still for that read-out and setting: as for `Nc1ncc(-c2cccnc2)c2scc(-c3cccc(NC(=O)c4cc(F)ccc4F)c3)c12`, the figure is 49 nM; as for `Nc1ncc(-c2cccnc2)c2scc(-c3cccc(NC(=O)c4ccccc4)c3)c12`, 93 nM.
Still for that read-out and setting: the value for `Nc1ncc(-c2cccnc2)c2scc(-c3cccc(NC(=O)Nc4c(F)cccc4F)c3)c12` was 19.5 nM; that for `COc1cccc(NC(=O)Nc2cccc(-c3csc4c(-c5cccnc5)cnc(N)c34)c2)c1` was 9.6 nM.
Regarding `Nc1ncc(-c2cccnc2)c2scc(-c3cccc(NC(=O)Nc4ccc(Cl)c(C(F)(F)F)c4)c3)c12`, in assay [1], the half-maximal inhibitory concentration (IC50) turned out to be 16.6 nM. For the same compound, the Ratio IC50 in the assay listed under Homo sapiens [2], in the assay listed under Homo sapiens [3], in the assay filed under Homo sapiens [4], in the assay listed under Homo sapiens [5], in the assay filed under Homo sapiens [6] and in the assay listed under Homo sapiens [7] was over 100 in each case. For the same compound, the Ratio IC50 in the assay listed under Homo sapiens [8], in the assay filed under Homo sapiens [9], in the assay listed under Homo sapiens [10], in the assay filed under Homo sapiens [11], in the assay filed under Homo sapiens [12] and in the assay filed under Homo sapiens [13] was over 100 in each case. Further, the Ratio IC50 in the assay filed under Homo sapiens [14], in the assay filed under Homo sapiens [15], in the assay filed under Homo sapiens [16] and in the assay listed under Homo sapiens [17] was over 100 in each case.
Regarding `Nc1ncc(-c2cccnc2)c2scc(-c3cccc(NS(=O)(=O)c4ccccc4)c3)c12`, in assay [1], the IC50 is over 10000 nM.
The same measure, in the same setting: as for `Cn1cccc1C(=O)Nc1cccc(-c2csc3c(-c4cccnc4)cnc(N)c23)c1`, the figure is 4170 nM; as for `Nc1ncc(-c2cccnc2)c2scc(-c3cccc(NC(=O)NC4CCCCC4)c3)c12`, 30.9 nM.
On the same count and under the same terms, as for `Nc1ncc(-c2cccnc2)c2scc(-c3cccc(NC(=O)Nc4ccccc4)c3)c12`, the figure is 13.8 nM.
